PubChem BioAssay (NCI)
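Dose response: 5 concentrations. Exposure: 48 h. Format: 96-well plates. Endpoint: linear interpolation; highest concentration if not reached. The concentration for 50% growth inhibition is given as GI50. TGI: total growth inhibition.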

Columns and labels:
Test in all cases: DTP human tumour cell line panel, 48 h
[1] = tested on: 786-0 renal
[2] = tested on: A498 renal
[3] = tested on: A549 NSCLC
[4] = tested on: ACHN renal
[5] = tested on: BT-549 breast
[6] = tested on: CAKI-1 renal
[7] = tested on: CCRF-CEM leukemia
[8] = tested on: COLO 205 colon
[9] = tested on: DU-145 prostate
[10] = tested on: EKVX NSCLC
[11] = tested on: HCC-2998 colon
[12] = tested on: HCT-116 colon
[13] = tested on: HCT-15 colon
[14] = tested on: HL-60(TB) leukemia
[15] = tested on: HOP-62 NSCLC
[16] = tested on: HOP-92 NSCLC
[17] = tested on: HS 578T breast
[18] = tested on: HT29 colon
[19] = tested on: IGROV1 ovarian
[20] = tested on: K-562 leukemia
[21] = tested on: KM12 colon
[22] = tested on: LOX IMVI melanoma
[23] = tested on: M14 melanoma
[24] = tested on: MALME-3M melanoma
[25] = tested on: MCF7 breast
[26] = tested on: MDA-MB-231 breast
[27] = tested on: MDA-MB-435
[28] = tested on: MDA-MB-468 breast
[29] = tested on: MOLT-4 leukemia
[30] = tested on: NCI-H226 lung
[31] = tested on: NCI-H23 lung
[32] = tested on: NCI-H460 lung
[33] = tested on: NCI-H522 lung
[34] = tested on: NCI/ADR-RES ovarian
[35] = tested on: OVCAR-3 ovarian
[36] = tested on: OVCAR-4 ovarian
[37] = tested on: OVCAR-5 ovarian
[38] = tested on: OVCAR-8 ovarian
[39] = tested on: PC-3 prostate
[40] = tested on: RPMI-8226 leukemia
[41] = tested on: RXF 393 renal
[42] = tested on: SF-268 CNS
[43] = tested on: SF-295 CNS
[44] = tested on: SF-539 CNS
[45] = tested on: SK-MEL-2 melanoma
[46] = tested on: SK-MEL-28 melanoma
[47] = tested on: SK-MEL-5 melanoma
[48] = tested on: SK-OV-3 ovarian
[49] = tested on: SN12C renal
[50] = tested on: SNB-19 CNS
[51] = tested on: SNB-75 CNS
[52] = tested on: SR leukemia
[53] = tested on: SW-620 colon
[54] = tested on: T-47D breast
[55] = tested on: TK-10 renal
[56] = tested on: U251 CNS
[57] = tested on: UACC-257 melanoma
[58] = tested on: UACC-62 melanoma
[59] = tested on: UO-31 renal

SMILES: O=C(NO)c1ccc(Cn2ccc3c(NCc4ccccc4)ncnc32)cc1
- GI50 [1]: 8.63 µM
- TGI [1]: 26.6 µM
- GI50 [2]: 2.28 µM
- TGI [2]: 10.2 µM
- GI50 [3]: 4.34 µM
- TGI [3]: 20.6 µM
- GI50 [4]: 4.07 µM
- TGI [4]: 15.2 µM
- GI50 [5]: 13.7 µM
- TGI [5]: 31.7 µM
- GI50 [6]: 3.21 µM
- TGI [6]: 15.2 µM
- GI50 [7]: 3.72 µM
- TGI [7]: 58.7 µM
- GI50 [8]: 2.43 µM
- TGI [8]: 6.24 µM
- GI50 [9]: 4.06 µM
- TGI [9]: > 103 µM
- GI50 [10]: 5.93 µM
- TGI [10]: 19.8 µM
- GI50 [11]: 4.5 µM
- TGI [11]: 17.1 µM
- GI50 [12]: 3.4 µM
- TGI [12]: 24.9 µM
- GI50 [13]: 3.09 µM
- TGI [13]: 15.2 µM
- GI50 [14]: 2.34 µM
- TGI [14]: 6.38 µM
- GI50 [15]: 4.13 µM
- TGI [15]: 20.9 µM
- GI50 [16]: 4.07 µM
- TGI [16]: 18.5 µM
- GI50 [17]: 2.27 µM
- TGI [17]: 7.62 µM
- GI50 [18]: 2.48 µM
- TGI [18]: 6.93 µM
- GI50 [19]: 4.14 µM
- TGI [19]: 14.7 µM
- GI50 [20]: 2.03 µM
- TGI [20]: > 103 µM
- GI50 [21]: 3.19 µM
- TGI [21]: 12.7 µM
- GI50 [22]: 4.2 µM
- TGI [22]: 16.1 µM
- GI50 [23]: 4.12 µM
- TGI [23]: 20.2 µM
- GI50 [24]: 1.99 µM
- TGI [24]: 9.52 µM
- GI50 [25]: 3.25 µM
- TGI [25]: 22.8 µM
- GI50 [26]: 5.2 µM
- TGI [26]: 22 µM
- GI50 [27]: 0.562 µM
- TGI [27]: 2.26 µM
- GI50 [28]: 2.12 µM
- TGI [28]: 6.05 µM
- GI50 [29]: 2.41 µM
- TGI [29]: 10.3 µM
- GI50 [30]: 4.17 µM
- TGI [30]: 25.5 µM
- GI50 [31]: 4.8 µM
- TGI [31]: 17.2 µM
- GI50 [32]: 3.12 µM
- TGI [32]: 19.1 µM
- GI50 [33]: 1.93 µM
- TGI [33]: 7.69 µM
- GI50 [34]: 2.6 µM
- TGI [34]: 12.7 µM
- GI50 [35]: 2.17 µM
- TGI [35]: 5.23 µM
- GI50 [36]: 12.2 µM
- TGI [36]: 96.2 µM
- GI50 [37]: 2.57 µM
- TGI [37]: 10.1 µM
- GI50 [38]: 3.1 µM
- TGI [38]: 14.4 µM
- GI50 [39]: 4.35 µM
- TGI [39]: 97.9 µM
- GI50 [40]: 2.9 µM
- TGI [40]: > 103 µM
- GI50 [41]: 1.94 µM
- TGI [41]: 5.63 µM
- GI50 [42]: 8.8 µM
- TGI [42]: 36.5 µM
- GI50 [43]: 3.49 µM
- TGI [43]: 12.7 µM
- GI50 [44]: 2.64 µM
- TGI [44]: 9.8 µM
- GI50 [45]: 4.58 µM
- TGI [45]: 18.7 µM
- GI50 [46]: 3.77 µM
- TGI [46]: 17.5 µM
- GI50 [47]: 1.9 µM
- TGI [47]: 6.37 µM
- GI50 [48]: 3.27 µM
- TGI [48]: 15.6 µM
- GI50 [49]: 4.41 µM
- TGI [49]: 17.3 µM
- GI50 [50]: 5.81 µM
- TGI [50]: 20.6 µM
- GI50 [51]: 1.25 µM
- TGI [51]: 5.36 µM
- GI50 [52]: 0.937 µM
- TGI [52]: > 103 µM
- GI50 [53]: 2.22 µM
- TGI [53]: 6.49 µM
- GI50 [54]: 3.13 µM
- TGI [54]: 21.8 µM
- GI50 [55]: 3.2 µM
- TGI [55]: 17.8 µM
- GI50 [56]: 3.21 µM
- TGI [56]: 15.2 µM
- GI50 [57]: 2.39 µM
- TGI [57]: 15.1 µM
- GI50 [58]: 2.39 µM
- TGI [58]: 12.2 µM
- GI50 [59]: 3.93 µM
- TGI [59]: 16.6 µM

SMILES: O=C(Nc1cc(Cl)cc(Cl)c1)Nc1cc(Cl)cc(Cl)c1
- GI50 [1]: 3 µM
- TGI [1]: > 100 µM
- GI50 [2]: 2.24 µM
- TGI [2]: 6.51 µM
- GI50 [3]: 2.02 µM
- TGI [3]: > 100 µM
- GI50 [4]: 2.75 µM
- TGI [4]: > 100 µM
- GI50 [5]: 2.45 µM
- TGI [5]: 7.85 µM
- GI50 [6]: 2.79 µM
- TGI [6]: > 100 µM
- GI50 [7]: 2.55 µM
- TGI [7]: 8.04 µM
- GI50 [8]: 1.99 µM
- TGI [8]: 3.5 µM
- GI50 [9]: 3.89 µM
- TGI [9]: > 100 µM
- GI50 [11]: 3.13 µM
- TGI [11]: > 100 µM
- GI50 [13]: 2.18 µM
- TGI [13]: > 100 µM
- GI50 [14]: 1.57 µM
- TGI [14]: 4.07 µM
- GI50 [15]: 2.61 µM
- TGI [15]: 8.74 µM
- GI50 [16]: 1.99 µM
- TGI [16]: 6.02 µM
- GI50 [17]: 2.69 µM
- TGI [17]: 8.47 µM
- GI50 [18]: 2.88 µM
- TGI [18]: 14.9 µM
- GI50 [19]: 3.52 µM
- TGI [19]: > 100 µM
- GI50 [20]: 2.5 µM
- TGI [20]: 12.8 µM
- GI50 [21]: 2.97 µM
- TGI [21]: 9.44 µM
- GI50 [22]: 2.1 µM
- TGI [22]: 4.54 µM
- GI50 [24]: 1.92 µM
- TGI [24]: 5.13 µM
- GI50 [25]: 2.28 µM
- TGI [25]: 7.37 µM
- GI50 [27]: 3.11 µM
- TGI [27]: > 100 µM
- GI50 [28]: 2.27 µM
- TGI [28]: 6.48 µM
- GI50 [29]: 1.82 µM
- TGI [29]: 4.42 µM
- GI50 [30]: 2.95 µM
- TGI [30]: > 100 µM
- GI50 [31]: 1.86 µM
- TGI [31]: 5.55 µM
- GI50 [32]: 2.11 µM
- TGI [32]: > 100 µM
- GI50 [33]: 1.23 µM
- TGI [33]: 5.22 µM
- GI50 [34]: 2.17 µM
- TGI [34]: 8.41 µM
- GI50 [35]: 2.92 µM
- TGI [35]: > 100 µM
- GI50 [36]: 3.54 µM
- TGI [36]: > 100 µM
- GI50 [37]: 2.91 µM
- TGI [37]: > 100 µM
- GI50 [38]: 2.9 µM
- TGI [38]: > 100 µM
- GI50 [39]: 2.42 µM
- TGI [39]: > 100 µM
- GI50 [40]: 0.861 µM
- TGI [40]: 3.97 µM
- GI50 [41]: 2.56 µM
- TGI [41]: 8.66 µM
- GI50 [42]: 3.31 µM
- TGI [42]: > 100 µM
- GI50 [43]: 1.74 µM
- TGI [43]: 4.4 µM
- GI50 [44]: 2.26 µM
- TGI [44]: 6.07 µM
- GI50 [46]: 2.75 µM
- TGI [46]: > 100 µM
- GI50 [47]: 1.74 µM
- TGI [47]: 3.28 µM
- GI50 [48]: 2.4 µM
- TGI [48]: 6.31 µM
- GI50 [49]: 2.66 µM
- TGI [49]: 9.92 µM
- GI50 [50]: 3.05 µM
- TGI [50]: > 100 µM
- GI50 [52]: 1.72 µM
- TGI [52]: 4.1 µM
- GI50 [53]: 3.4 µM
- TGI [53]: > 100 µM
- GI50 [54]: 3.04 µM
- TGI [54]: > 100 µM
- GI50 [55]: 3.27 µM
- TGI [55]: > 100 µM
- GI50 [56]: 2.75 µM
- TGI [56]: 11.5 µM
- GI50 [57]: 2.35 µM
- TGI [57]: 6.42 µM
- GI50 [58]: 2.48 µM
- TGI [58]: 14.3 µM
